Results on five molecules are retold here after ChEMBL document CHEMBL1909046, “DrugMatrix in vitro pharmacology data”.

The first test deals with Sodium-dependent noradrenaline transporter (Homo sapiens, UniProt P23975). The experiment in a line: DRUGMATRIX: Norepinephrine Transporter radioligand binding (ligand: [125I] RTI-55). Format: cell membranes, MDCK, Membrane. The following applies: mdck; Not Active = under 50% inhibition at 10 µM.
Sodium-dependent noradrenaline transporter, sequence (P23975 whole entry): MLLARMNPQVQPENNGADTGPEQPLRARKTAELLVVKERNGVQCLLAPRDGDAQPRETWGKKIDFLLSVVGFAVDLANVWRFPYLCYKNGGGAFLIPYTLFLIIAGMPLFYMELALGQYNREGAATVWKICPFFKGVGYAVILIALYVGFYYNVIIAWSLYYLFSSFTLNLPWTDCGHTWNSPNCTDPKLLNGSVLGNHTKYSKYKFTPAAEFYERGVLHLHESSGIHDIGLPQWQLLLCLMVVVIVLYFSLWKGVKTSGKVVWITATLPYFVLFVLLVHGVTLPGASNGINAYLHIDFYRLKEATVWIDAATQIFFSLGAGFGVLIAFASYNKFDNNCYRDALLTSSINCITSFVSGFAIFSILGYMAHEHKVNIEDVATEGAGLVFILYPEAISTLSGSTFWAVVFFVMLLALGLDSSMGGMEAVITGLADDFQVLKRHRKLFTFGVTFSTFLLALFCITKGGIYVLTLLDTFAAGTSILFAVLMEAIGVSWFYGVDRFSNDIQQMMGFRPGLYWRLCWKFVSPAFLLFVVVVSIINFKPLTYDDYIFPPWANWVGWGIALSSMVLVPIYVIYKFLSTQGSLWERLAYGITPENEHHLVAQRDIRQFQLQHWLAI
For `Clc1cc2c(cc1Cl)Oc1cc(Cl)c(Cl)cc1O2` [2,3,7,8-TETRACHLORODIBENZO-P-DIOXIN], the IC50 result is on record as “Not Active”.

Take `CCCCCC[C@H]1C(=O)O[C@H](C)[C@H](NC(=O)c2cccc(NC=O)c2O)C(=O)O[C@@H](C)[C@@H]1OC(=O)CC(C)C` [ANTIMYCIN A]: the IC50 entry is reported as “Not Active”.

On to `C[C@@H]1CC[C@H]2[C@@H](C)C(=O)O[C@@H]3O[C@@]4(C)CC[C@@H]1[C@]32OO4` [ARTEMISININ], for which the IC50 result is recorded as “Not Active”.

With `CO[C@H]1[C@@H](O)[C@H](N)[C@@H](O[C@H]2O[C@H]([C@H](C)N)CC[C@H]2N)[C@H](O)[C@@H]1N(C)C(=O)CN` [ASTROMICIN], the IC50 entry is listed as “Not Active”.

In the next test the target is 5-hydroxytryptamine receptor 2B (Homo sapiens, UniProt P41595). Format: cell membranes, CHO-K1, Membrane. The following applies: cho-k1. Further: in other assays of this panel Not Active means under 50% inhibition at 10 µM.
5-hydroxytryptamine receptor 2B, sequence (P41595 whole entry): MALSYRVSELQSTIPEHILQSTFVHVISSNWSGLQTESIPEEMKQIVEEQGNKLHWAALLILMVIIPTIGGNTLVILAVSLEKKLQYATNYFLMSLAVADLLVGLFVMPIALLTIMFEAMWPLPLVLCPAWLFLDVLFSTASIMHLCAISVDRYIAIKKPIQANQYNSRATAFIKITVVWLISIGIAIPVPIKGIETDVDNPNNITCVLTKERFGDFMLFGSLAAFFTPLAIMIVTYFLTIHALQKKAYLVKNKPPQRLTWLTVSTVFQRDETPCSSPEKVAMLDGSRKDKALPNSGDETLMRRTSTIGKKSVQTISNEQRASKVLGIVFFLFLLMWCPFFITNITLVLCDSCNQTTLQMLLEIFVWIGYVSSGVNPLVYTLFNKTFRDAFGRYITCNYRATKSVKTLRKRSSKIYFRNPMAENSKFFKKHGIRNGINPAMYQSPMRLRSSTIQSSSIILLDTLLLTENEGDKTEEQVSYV
Take `Clc1cc2c(cc1Cl)Oc1cc(Cl)c(Cl)cc1O2` [2,3,7,8-TETRACHLORODIBENZO-P-DIOXIN]: the IC50 entry is recorded as “Not Active”.

On to `CCCCCC[C@H]1C(=O)O[C@H](C)[C@H](NC(=O)c2cccc(NC=O)c2O)C(=O)O[C@@H](C)[C@@H]1OC(=O)CC(C)C` [ANTIMYCIN A], for which the IC50 result is given as “Not Active”.

With `C[C@@H]1CC[C@H]2[C@@H](C)C(=O)O[C@@H]3O[C@@]4(C)CC[C@@H]1[C@]32OO4` [ARTEMISININ], the IC50 result is given as “Not Active”.

Regarding `CO[C@H]1[C@@H](O)[C@H](N)[C@@H](O[C@H]2O[C@H]([C@H](C)N)CC[C@H]2N)[C@H](O)[C@@H]1N(C)C(=O)CN` [ASTROMICIN], the IC50 result is on record as “Not Active”.

For `C[C@]12CCC(=O)C=C1CC[C@@H]1[C@@H]2[C@@H](O)C[C@@]2(C)[C@H]1CC[C@]2(O)C(=O)CO` [HYDROCORTISONE], the IC50 entry is on record as “Not Active”.

The target in another test is T1, Cysteinyl leukotriene receptor 1 (Homo sapiens, UniProt Q9Y271). Further: in other assays of this panel Not Active means under 50% inhibition at 10 µM.
T1 sequence (Q9Y271 whole entry): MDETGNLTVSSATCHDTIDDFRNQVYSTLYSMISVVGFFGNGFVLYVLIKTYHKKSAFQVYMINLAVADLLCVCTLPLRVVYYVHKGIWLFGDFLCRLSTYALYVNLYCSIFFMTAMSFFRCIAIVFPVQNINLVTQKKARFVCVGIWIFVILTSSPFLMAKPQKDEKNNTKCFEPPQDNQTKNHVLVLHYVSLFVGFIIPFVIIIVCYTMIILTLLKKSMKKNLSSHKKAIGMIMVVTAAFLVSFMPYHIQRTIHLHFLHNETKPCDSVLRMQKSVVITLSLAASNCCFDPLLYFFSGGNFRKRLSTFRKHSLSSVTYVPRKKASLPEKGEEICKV
Format: cell membranes, Membrane. The following applies: cho-k1.
As to `Clc1cc2c(cc1Cl)Oc1cc(Cl)c(Cl)cc1O2` [2,3,7,8-TETRACHLORODIBENZO-P-DIOXIN], the IC50 entry is reported as “Not Active”.

Consider `CCCCCC[C@H]1C(=O)O[C@H](C)[C@H](NC(=O)c2cccc(NC=O)c2O)C(=O)O[C@@H](C)[C@@H]1OC(=O)CC(C)C` [ANTIMYCIN A], for which the IC50 entry was “Not Active”.

On to `C[C@@H]1CC[C@H]2[C@@H](C)C(=O)O[C@@H]3O[C@@]4(C)CC[C@@H]1[C@]32OO4` [ARTEMISININ], for which the IC50 result was “Not Active”.

Turning to `CO[C@H]1[C@@H](O)[C@H](N)[C@@H](O[C@H]2O[C@H]([C@H](C)N)CC[C@H]2N)[C@H](O)[C@@H]1N(C)C(=O)CN` [ASTROMICIN], the IC50 result is “Not Active”.

Regarding `C[C@]12CCC(=O)C=C1CC[C@@H]1[C@@H]2[C@@H](O)C[C@@]2(C)[C@H]1CC[C@]2(O)C(=O)CO` [HYDROCORTISONE], the IC50 result is recorded as “Not Active”.

A further test has as its target T2, Amine oxidase [flavin-containing] A (Homo sapiens, UniProt P21397).
T2 sequence (P21397 whole entry): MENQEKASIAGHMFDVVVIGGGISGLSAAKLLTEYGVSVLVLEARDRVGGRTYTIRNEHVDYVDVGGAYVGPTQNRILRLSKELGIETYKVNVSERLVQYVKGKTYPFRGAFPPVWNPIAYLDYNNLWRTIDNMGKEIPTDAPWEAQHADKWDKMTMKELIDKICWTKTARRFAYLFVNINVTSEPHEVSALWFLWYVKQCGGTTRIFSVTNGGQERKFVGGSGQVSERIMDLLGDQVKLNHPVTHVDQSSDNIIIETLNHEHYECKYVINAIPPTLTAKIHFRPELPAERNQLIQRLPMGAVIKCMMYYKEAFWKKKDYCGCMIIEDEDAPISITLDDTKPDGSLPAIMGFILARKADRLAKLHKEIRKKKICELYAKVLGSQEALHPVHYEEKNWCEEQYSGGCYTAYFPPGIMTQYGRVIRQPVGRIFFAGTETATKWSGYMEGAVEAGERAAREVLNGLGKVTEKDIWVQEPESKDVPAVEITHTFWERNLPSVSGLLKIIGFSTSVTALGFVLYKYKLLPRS
The experiment in a line: DRUGMATRIX: Monoamine Oxidase MAO-A enzyme inhibition (substrate: Kynuramine). To be noted: bti-tn-5b1-4; Not Active = under 50% inhibition at 10 µM. Set-up: species or system BTI-TN-5B1-4.
`Clc1cc2c(cc1Cl)Oc1cc(Cl)c(Cl)cc1O2` [2,3,7,8-TETRACHLORODIBENZO-P-DIOXIN]: the IC50 result is given as “Not Active”.

Regarding `CCCCCC[C@H]1C(=O)O[C@H](C)[C@H](NC(=O)c2cccc(NC=O)c2O)C(=O)O[C@@H](C)[C@@H]1OC(=O)CC(C)C` [ANTIMYCIN A], the IC50 entry is listed as “Not Active”.

In the case of `C[C@@H]1CC[C@H]2[C@@H](C)C(=O)O[C@@H]3O[C@@]4(C)CC[C@@H]1[C@]32OO4` [ARTEMISININ], the IC50 result is listed as “Not Active”.

For `CO[C@H]1[C@@H](O)[C@H](N)[C@@H](O[C@H]2O[C@H]([C@H](C)N)CC[C@H]2N)[C@H](O)[C@@H]1N(C)C(=O)CN` [ASTROMICIN], the IC50 result is reported as “Not Active”.

Take `C[C@]12CCC(=O)C=C1CC[C@@H]1[C@@H]2[C@@H](O)C[C@@]2(C)[C@H]1CC[C@]2(O)C(=O)CO` [HYDROCORTISONE]: the IC50 result was “Not Active”.

The next test has as its target Protein phosphatase 3 catalytic subunit alpha (Homo sapiens, UniProt Q08209). The arrangement: species or system Escherichia coli.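 Further: inhibition of calcineurin (PP2B) enzyme activity, measured with DiFMUP as the substrate; in other assays of this panel Not Active means under 50% inhibition at 10 µM.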
Conditions: not given
`Clc1cc2c(cc1Cl)Oc1cc(Cl)c(Cl)cc1O2` [2,3,7,8-TETRACHLORODIBENZO-P-DIOXIN]: the IC50 result is “Not Active”.

On to `CCCCCC[C@H]1C(=O)O[C@H](C)[C@H](NC(=O)c2cccc(NC=O)c2O)C(=O)O[C@@H](C)[C@@H]1OC(=O)CC(C)C` [ANTIMYCIN A], for which the IC50 result is “Not Active”.

Turning to `C[C@@H]1CC[C@H]2[C@@H](C)C(=O)O[C@@H]3O[C@@]4(C)CC[C@@H]1[C@]32OO4` [ARTEMISININ], the IC50 result is recorded as “Not Active”.

Turning to `CO[C@H]1[C@@H](O)[C@H](N)[C@@H](O[C@H]2O[C@H]([C@H](C)N)CC[C@H]2N)[C@H](O)[C@@H]1N(C)C(=O)CN` [ASTROMICIN], the IC50 result is reported as “Not Active”.

Consider `C[C@]12CCC(=O)C=C1CC[C@@H]1[C@@H]2[C@@H](O)C[C@@]2(C)[C@H]1CC[C@]2(O)C(=O)CO` [HYDROCORTISONE], for which the IC50 result is reported as “Not Active”.

Test system in another test: not listed separately
In words: DRUGMATRIX: Purinergic P2X radioligand binding (ligand: [3H] alpha, beta-Methylene-ATP). Format: cell membranes, Oryctolagus cuniculus, New Zealand albino, Urinary bladder, Membrane. To be noted: Not Active = under 50% inhibition at 10 µM.
On to `Clc1cc2c(cc1Cl)Oc1cc(Cl)c(Cl)cc1O2` [2,3,7,8-TETRACHLORODIBENZO-P-DIOXIN], for which the IC50 entry is reported as “Not Active” and the Ki result is “Not Active”.

For the molecule `CCCCCC[C@H]1C(=O)O[C@H](C)[C@H](NC(=O)c2cccc(NC=O)c2O)C(=O)O[C@@H](C)[C@@H]1OC(=O)CC(C)C` [ANTIMYCIN A], the IC50 result is on record as “Not Active” and the Ki entry is “Not Active”.

As to `C[C@@H]1CC[C@H]2[C@@H](C)C(=O)O[C@@H]3O[C@@]4(C)CC[C@@H]1[C@]32OO4` [ARTEMISININ], the IC50 entry is recorded as “Not Active” and the Ki entry is “Not Active”.

In the case of `CO[C@H]1[C@@H](O)[C@H](N)[C@@H](O[C@H]2O[C@H]([C@H](C)N)CC[C@H]2N)[C@H](O)[C@@H]1N(C)C(=O)CN` [ASTROMICIN], the IC50 entry was “Not Active” and the Ki result is given as “Not Active”.

`C[C@]12CCC(=O)C=C1CC[C@@H]1[C@@H]2[C@@H](O)C[C@@]2(C)[C@H]1CC[C@]2(O)C(=O)CO` [HYDROCORTISONE]: the IC50 entry is “Not Active” and the Ki entry is given as “Not Active”.

The next test deals with Estrogen receptor beta (Homo sapiens, UniProt Q92731). To be noted: sf9.
Estrogen receptor beta, sequence (Q92731 whole entry): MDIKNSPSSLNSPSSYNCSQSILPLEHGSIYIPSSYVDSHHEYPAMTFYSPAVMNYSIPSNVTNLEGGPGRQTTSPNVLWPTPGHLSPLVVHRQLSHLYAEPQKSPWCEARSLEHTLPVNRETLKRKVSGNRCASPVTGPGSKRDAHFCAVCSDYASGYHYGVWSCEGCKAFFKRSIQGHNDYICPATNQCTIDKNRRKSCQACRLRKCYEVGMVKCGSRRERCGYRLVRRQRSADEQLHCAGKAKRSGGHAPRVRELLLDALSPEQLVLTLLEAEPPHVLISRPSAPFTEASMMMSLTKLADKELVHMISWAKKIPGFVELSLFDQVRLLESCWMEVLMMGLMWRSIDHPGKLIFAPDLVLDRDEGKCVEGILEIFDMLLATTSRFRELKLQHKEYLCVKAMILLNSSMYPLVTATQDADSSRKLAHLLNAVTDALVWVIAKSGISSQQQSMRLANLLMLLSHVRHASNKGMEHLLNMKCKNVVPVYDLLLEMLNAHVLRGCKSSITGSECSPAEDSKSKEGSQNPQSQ
As for `Clc1cc2c(cc1Cl)Oc1cc(Cl)c(Cl)cc1O2` [2,3,7,8-TETRACHLORODIBENZO-P-DIOXIN], the IC50 entry was “Not Active”.

`CCCCCC[C@H]1C(=O)O[C@H](C)[C@H](NC(=O)c2cccc(NC=O)c2O)C(=O)O[C@@H](C)[C@@H]1OC(=O)CC(C)C` [ANTIMYCIN A]: the IC50 entry is listed as “Not Active”.

For `C[C@@H]1CC[C@H]2[C@@H](C)C(=O)O[C@@H]3O[C@@]4(C)CC[C@@H]1[C@]32OO4` [ARTEMISININ], the IC50 entry is on record as “Not Active”.

For the molecule `CO[C@H]1[C@@H](O)[C@H](N)[C@@H](O[C@H]2O[C@H]([C@H](C)N)CC[C@H]2N)[C@H](O)[C@@H]1N(C)C(=O)CN` [ASTROMICIN], the IC50 entry is on record as “Not Active”.

As for `C[C@]12CCC(=O)C=C1CC[C@@H]1[C@@H]2[C@@H](O)C[C@@]2(C)[C@H]1CC[C@]2(O)C(=O)CO` [HYDROCORTISONE], the IC50 result is on record as “Not Active”.
